Legend:
Cagα ATPase activity = Cagα ATPase activity (Helicobacter pylori, UniProt G5EB02); assay: Malachite green ATPase activity assay; type: biochemical; settings: for Mechanism of inhibition: inhibitor 0 to 500 μM, ATP varied, only Vmax affected, Km constant
Method: We used a Malachite green assay to measure the release of inorganic phosphate from ATP to assess whether the 16 binding fragments impact the enzymatic activity of Cagα. […] Therefore, the mechanism of inhibition by molecules 1G2 and 1G2#4 is non-competitive.
The ATPase activity was quantified using a malachite green binding assay. The 100 μL reaction mixtures contained 25 mM HEPES (pH 7.5), 100 mM NaCl, 60 nM of enzyme and 200 µM of MgCl2 with different concentrations of ATP (0 µM–320 µM) to determine kinetic parameters. The reaction mixtures were incubated for 30 min at 30 °C and then 40 μL of malachite green assay mixture was added. The formation of the blue phosphomolybdate-malachite green complex was in linear relation to the amount of released inorganic phosphate and measured at 610 nm. To study the mechanism of inhibition, the concentrations of inhibitors were varied between 0 and 500 μM with different concentrations of ATP (0–40 μM). Initial velocity data were fit using nonlinear regression analysis to each of the equations describing partial and full models of competitive, uncompetitive, non-competitive, and mixed inhibition using the Enzyme Kinetics Module of SigmaPlot (SigmaPlot version 11.0 software). On the basis of the analysis of fits through “goodness-of-fit” statistics, the full non-competitive inhibition model was determined with the equation ν = Vmax/[(1 + [I]/Ki) × (1 + Km/[S])], where [S] = [ATP], [I] = [1G2].
IC50 values were determined by incubating different concentrations of molecules (10–1,000 µM; from stocks of 200 mM) with enzyme in 25 mM HEPES (pH 7.5) and 100 mM NaCl. Mixtures were incubated with inhibitors for 15 min, followed by addition of ATP and incubation for 30 min at 37 °C. The reactions were stopped by addition of 40 µl malachite green solution and the inorganic phosphate released was determined at 610 nm. Data were plotted as 1/rate versus inhibitor concentration for each substrate concentration and a linear fit was calculated by non-linear regression using SigmaPlot (version 11.0).

[1] = tested on: tyrosine phosphorylation of the T4SS-translocated virulence factor CagA; assay: CagA transfer into AGS cells / CagA tyrosine phosphorylation (western blot); type: cell-based, Helicobacter pylori; settings: H. pylori pre-incubated with molecule, AGS infection
Excerpt: (§1) Finally, we assessed whether molecule 1G2 or its derivates impact the functionality of the T4SS in vivo. To this effect, we tested their impact on the interaction of H. pylori strain 26695 with gastric adenocarcinoma (AGS) cells. […] We then tested the effects of these molecules in two commonly used assays for downstream effects of T4SS function: IL-8 production and CagA phosphorylation. […] In contrast, derivates 1G2#1 to #6 have no effect on IL-8 production. Similarly, none of the molecules reduces the tyrosine phosphorylation of the T4SS-translocated virulence factor CagA, which is generally used as an alternative assay to measure T4SS function (Supplementary Fig. 8). […] This observation may be due to partial inhibition of T4SS function by 1G2 that is more readily quantifiable in the IL-8 production assay as compared to the CagA phosphorylation assay.
Preceding the infection, an overnight culture of H. pylori was pre-incubated with 1G2 and its derivates for 30 min. AGS cells at 6 × 10^5 cells/well density in 6-well plates were infected with the pre-treated cultures of H. pylori for 3–6 h at a multiplicity of infection of 100:1. […]
Western blot analyses were reproduced four times and intensities of the CagAPY signals were quantified (Image Lab TM Software) and normalized using anti -b-actin signals. […]

[2] = tested on: IL-8 production by AGS cells upon co-cultivation with H. pylori; assay: IL-8 induction in AGS cells co-cultivated with H. pylori (ELISA); type: cell-based, Helicobacter pylori; settings: 200 μM
Excerpt: as §1
Figure 6 Molecule 1G2 decreases IL-8 induction in co-cultivated AGS cells. H. pylori 26695 without and after pre-incubation with 1G2 and its derivatives for […]. AGS cells were then co-cultured with H. pylori overnight and IL-8 induction was measured by ELISA. The induction of IL-8 by the wild type was calculated as 100% (WT), induction of IL-8 by the ΔcagV strain was used as negative control. The data represent the results from three experiments. […]

H. pylori 26695 = assay: H. pylori growth on solid agar media (Whatman paper disks); type: cell-based, Helicobacter pylori; settings: 72 h
Excerpt: as §1
AGS cell viability was monitored using Cell Proliferation Reagent WST-1 (Sigma). To evaluate the sensitivity of H. pylori to 1G2 and its derivates, freshly harvested bacteria were spread on a 150-mm agar plate. Increasing concentrations of compounds (50–500 μM) were spotted onto Whatman paper disks and growth was observed after 72 h incubation at 37 °C under microaerophilic conditions and compared to antibiotics (50–250 μM).
Supplementary Figure 6. Effects of molecule 1G2 and its derivates on H. pylori growth. […]

Sequence of Cagα ATPase activity (G5EB02 entry or part of it): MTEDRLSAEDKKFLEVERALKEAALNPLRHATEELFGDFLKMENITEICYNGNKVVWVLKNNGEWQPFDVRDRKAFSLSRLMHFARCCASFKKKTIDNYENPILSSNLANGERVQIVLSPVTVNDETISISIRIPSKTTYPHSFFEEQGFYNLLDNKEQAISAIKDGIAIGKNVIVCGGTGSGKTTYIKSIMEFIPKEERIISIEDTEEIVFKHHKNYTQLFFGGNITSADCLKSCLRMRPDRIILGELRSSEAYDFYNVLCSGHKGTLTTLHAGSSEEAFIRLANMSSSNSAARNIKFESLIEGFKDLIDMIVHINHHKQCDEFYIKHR

SMILES | IC50 (Cagα ATPase activity) | Mechanism of inhibition (Cagα ATPase activity) | Effect on tyrosine phosphorylation of CagA [1] | Effect on IL-8 production (in words) [2] | Effect on growth of H. pylori on solid agar media (H. pylori 26695; concentrations up to 500 μM) | IL-8 production, of the control ([2]; wild type without molecule = 100%) | Effect on growth of H. pylori (control antibiotic) (H. pylori 26695; several concentrations on Whatman paper disks)
Cc1ccc(Oc2ccc(C(=O)O)cc2)nc1 [1G2#4] | 81.9 µM | non-competitive | no effect | no effect |  |  | 
O=C(O)c1ccc(Oc2ccccn2)cc1 [1G2] | 196 µM | non-competitive | did not observe an effect |  | no negative effect | about 50% | 
O=C(N[C@H](CO)[C@H](O)c1ccc([N+](=O)[O-])cc1)C(Cl)Cl [chloramphenicol, reference compound] |  |  |  |  |  |  | inhibition of growth

From article PMC6482174, “Fragment-based screening identifies inhibitors of ATPase activity and of hexamer formation of Cagα from the Helicobacter pylori type IV secretion system” (Scientific Reports, 2019)
